Assay results published in patent US20250051327A1, “MALT-1 MODULATORS” (EXSCIENTIA AI LIMITED, priority 2020, published 2025).

Columns and labels:
[1] = biological target: Recombinant human MALT-1 (amino acids 340-824) (Homo sapiens (Human), UniProt Q9UDY8); experiment: MALT-1 inhibition assay (fluorogenic substrate Ac-LRSR-Rh110-DP); format: biochemical; details: recombinant human MALT-1, substrate Ac-LRSR-Rh110-DP
Outline: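 MALT-1 at 3 nM final was reacted with 10 μM Ac-LRSR-Rh110-DP, with substrate addition starting the reaction. Incubation ran 60 minutes at 25° C in the dark. Percent inhibition from fluorescence across doses was fitted to a 4-parameter logistic to give IC50.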

[2] = test system: IL-2 secretion by human effector memory T cells (TEM); experiment: Effector memory T cells IL-2 release assay; format: cell-based; details: T-cell; human CD4+ effector memory T cells, CD3/CD28 bead stimulation, 24 h; read-out: CD4TC IL2 IC50
Outline: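 Human CD4+ effector memory T cells from healthy-donor buffy coats were stimulated with anti-CD3/CD28 Dynabeads and exposed to 10 semi-log compound doses (0.1% DMSO) for 24 h at 37 °C. Supernatant IL-2 was measured by HTRF, and IC50 came from a 4-parameter logistic fit to maximal IL-2. Viability was checked by flow cytometry.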

Recombinant human MALT-1 (amino acids 340-824), sequence (Q9UDY8 340-824): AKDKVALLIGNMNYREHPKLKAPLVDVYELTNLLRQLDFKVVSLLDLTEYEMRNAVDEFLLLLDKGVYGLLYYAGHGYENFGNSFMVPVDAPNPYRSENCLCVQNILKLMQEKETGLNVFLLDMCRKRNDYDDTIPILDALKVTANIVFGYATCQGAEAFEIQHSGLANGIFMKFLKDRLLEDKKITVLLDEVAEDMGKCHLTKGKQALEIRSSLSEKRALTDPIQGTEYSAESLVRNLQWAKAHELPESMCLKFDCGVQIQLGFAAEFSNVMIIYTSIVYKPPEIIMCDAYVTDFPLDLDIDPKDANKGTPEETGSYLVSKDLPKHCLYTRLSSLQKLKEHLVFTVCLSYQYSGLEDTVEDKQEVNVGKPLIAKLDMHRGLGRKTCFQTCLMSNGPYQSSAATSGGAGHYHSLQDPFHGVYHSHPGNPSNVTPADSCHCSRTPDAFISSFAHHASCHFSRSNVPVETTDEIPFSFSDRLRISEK

| Structure (SMILES) | IC50 [1] [nM] | IC50 [2] [nM] |
| --- | --- | --- |
| CN(C(=O)[C@H]1CC[S@](=N)(=O)CC1)[C@@H](c1ccc(N2CCC(C)(C)c3c2cnc2cc(F)nn32)cc1)C(F)(F)F (relative stereo) [CPD0072783, (1rel-r,4rel-r)-1-imino-N-methyl-1-oxo-N-[(1S)-2,2,2-trifluoro-1-(4-{4′-fluoro-2′,3′,7′,10′-tetraazaspiro[cyclopropane-1,13′-tricyclo[7.4.0.0^2,6]tridecane]-1′(9′),3′,5′,7′-tetraen-10′-yl}phenyl)ethyl]-1λ^6-thiane-4-carboxamide] | 63 | 114 |
| CC(=O)N1CCC(C(=O)N(C)[C@@H](c2ccc(N3CC[C@H](C)c4c3cnc3cc(Cl)nn43)cc2)C(F)(F)F)CC1 (relative stereo) [CPD0074566, 1-Acetyl-N-[(1S)-1-[4-[(13rel-R)-4-chloro-13-methyl-2,3,7,10-tetrazatricyclo[7.4.0.0^2,6]trideca-1(9),3,5,7-tetraen-10-yl]phenyl]-2,2,2-trifluoro-ethyl]-N-methyl-piperidine-4-carboxamide] | 54 | 58 |
| COc1ccc2ncc(Nc3ccc([C@H](N(C)C(=O)[C@H]4CCN(C(=O)CO)C4)C(F)(F)F)cc3)c([C@H](C)OC)c2n1 (relative stereo) [CPD0075882, (3 rel S)-1-(2-hydroxyacetyl)-N-methyl-N-[(1S)-2,2,2-trifluoro-1-[4-[[6-methoxy-4-[(1 rel S)-1-methoxyethyl]-1,5-naphthyridin-3-yl]amino]phenyl]ethyl]pyrrolidine-3-carboxamide] | 64 | 40 |
| CN(C(=O)C1CCS(=O)(=O)CC1)[C@@H](c1ccc(N2CC(C)(C)c3c2cnc2cc(Cl)nn32)cc1)C(F)(F)F [CPD0019494, N-[(1S)-1-(4-{11-chloro-3,3-dimethyl-1,5,8,12-tetraazatricyclo[7.3.0.0^2,6]dodeca-2(6),7,9,11-tetraen-5-yl}phenyl)-2,2,2-trifluoroethyl]-N-methyl-1,1-dioxo-1λ^6-thiane-4-carboxamide] | 25 | 59 |
| CO[C@@H](C)c1c(Nc2ccc(C(N(C)C(=O)C3CCS(=O)(=O)CC3)C(F)(F)F)cc2)cnn2cc(Cl)nc12 (stereo partly drawn) [CPD0072849] | 37 | 55 |
| CC1CCN(c2ccc([C@H](N(C)C(=O)[C@H]3CC[S@@](=N)(=O)CC3)C(F)(F)F)cc2)c2cnc3cc(Cl)nn3c21 (stereo partly drawn) [CPD0072812] | 31 | 79 |
| CN(C(=O)C1CCS(=O)(=O)CC1)[C@@H](c1ccc(N2CCCc3c2cnc2cc(F)nn32)nc1)C(F)(F)F [CPD0021665, N-methyl-1,1-dioxo-N-[(1S)-2,2,2-trifluoro-1-(6-{4-fluoro-2,3,7,10-tetraazatricyclo[7.4.0.0^2,6]trideca-1(9),3,5,7-tetraen-10-yl}pyridin-3-yl)ethyl]-1λ^6-thiane-4-carboxamide] | 638 | 2100 |
| COc1ccc2ncc(Nc3ccc([C@H](N(C)C(=O)[C@H]4CC[S@@](=N)(=O)CC4)C(F)(F)F)cc3)c([C@H](C)OC)c2n1 (stereo in doubt) [CPD0073129, (1 rel-s,4rel-s)-1-imino-N-methyl-1-oxo-N-[(1S)-2,2,2-trifluoro-1-[4-({6-methoxy-4-[(1 rel-S)-1-methoxyethyl]-1,5-naphthyridin-3-yl}amino)phenyl]ethyl]-1λ^6-thiane-4-carboxamide] | 64 | 36 |
| CN(C(=O)[C@H]1CC[S@@+]([O-])CC1)[C@@H](c1ccc(N2CCC3(CC3)c3c2cnc2cc(F)nn32)cc1)C(F)(F)F (relative stereo) [CPD0072932, (1rel-s,4rel-s)-N-methyl-1-oxo-N-[(1S)-2,2,2-trifluoro-1-(4-{4′-fluoro-2′,3′,7′,10′-tetraazaspiro[cyclopropane-1,13′-tricyclo[7.4.0.0^2,6]tridecane]-1′(9′),3′,5′,7′-tetraen-10′-yl}phenyl)ethyl]-1λ^4-thiane-4-carboxamide] | 49 | 56 |
| CN(C(=O)Cc1ccccc1O)[C@@H](c1ccc(N2CCCc3c2cnc2cc(Cl)nn32)cc1)C(F)(F)F [CPD0019350, N-[(1S)-1-(4-{4-chloro-2,3,7,10-tetraazatricyclo[7.4.0.0^2,6]trideca-1(9),3,5,7-tetraen-10-yl}phenyl)-2,2,2-trifluoroethyl]-2-(2-hydroxyphenyl)-N-methylacetamide] | 70 | 103 |

More lines, now with the values ahead:

| IC50 [1] [nM] | IC50 [2] [nM] | Structure (SMILES) |
| --- | --- | --- |
| 100 | 199 | CN(C(=O)[C@@H]1CS(=O)(=O)CC12CC2)[C@@H](c1ccc(N2CCCc3c2cnc2cc(Cl)nn32)cc1)C(F)(F)F (relative stereo) [CPD0073968, (7rel-R)-N-[(1S)-1-(4-{4-chloro-2,3,7,10-tetraazatricyclo[7.4.0.0^2,6]trideca-1(9),3,5,7-tetraen-10-yl}phenyl)-2,2,2-trifluoroethyl]-N-methyl-5,5-dioxo-5λ^6-thiaspiro[2.4]heptane-7-carboxamide] |
| 59 | 101 | CN(C(=O)C1CCN(C(=O)CO)CC1)[C@@H](c1ccc(N2CCCc3c2cnc2cc(Cl)nn32)cc1)C(F)(F)F [CPD0073091, N-[(1S)-1-(4-{4-chloro-2,3,7,10-tetraazatricyclo[7.4.0.0^2,6]trideca-1(9),3,5,7-tetraen-10-yl}phenyl)-2,2,2-trifluoroethyl]-1-(2-hydroxyacetyl)-N-methylpiperidine-4-carboxamide] |
| 38 | 131 | CN(C(=O)[C@@H]1CCC(=O)NC1)[C@@H](c1ccc(N2CCCc3c2cnc2cc(Cl)nn32)cc1)C(F)(F)F (relative stereo) [CPD0073568, (3rel-R)-N-[(1S)-1-(4-{4-chloro-2,3,7,10-tetraazatricyclo[7.4.0.0^2,6]trideca-1(9),3,5,7-tetraen-10-yl}phenyl)-2,2,2-trifluoroethyl]-N-methyl-6-oxopiperidine-3-carboxamide] |
| 113 | 222 | CN(C(=O)[C@H]1C[C@](O)(C(F)(F)F)C1)[C@@H](c1ccc(N2CCCc3c2cnc2cc(Cl)nn32)cc1)C(F)(F)F [CPD0072441, (1s,3s)-N-[(1S)-1-(4-{4-chloro-2,3,7,10-tetraazatricyclo[7.4.0.0^2,6]trideca-1(9),3,5,7-tetraen-10-yl}phenyl)-2,2,2-trifluoroethyl]-3-hydroxy-N-methyl-3-(trifluoromethyl)cyclobutane-1-carboxamide] |
| 43 | 300 | CN(C(=O)[C@H]1CC[C@H](C(=O)O)CC1)[C@@H](c1ccc(N2CCCc3c2cnc2cc(Cl)nn32)cc1)C(F)(F)F [CPD0072442, (1r,4r)-4-{[(1S)-1-(4-{4-chloro-2,3,7,10-tetraazatricyclo[7.4.0.0^2,6]trideca-1(9),3,5,7-tetraen-10-yl}phenyl)-2,2,2-trifluoroethyl](methyl)carbamoyl}cyclohexane-1-carboxylic acid] |
| 278 | 152 | Cc1ncsc1C(=O)N(C)[C@@H](c1ccc(N2CCCc3c2cnc2cc(Cl)nn32)cc1)C(F)(F)F [CPD0019351, N-[(1S)-1-(4-{4-chloro-2,3,7,10-tetraazatricyclo[7.4.0.0^2,6]trideca-1(9),3,5,7-tetraen-10-yl}phenyl)-2,2,2-trifluoroethyl]-N,4-dimethyl-1,3-thiazole-5-carboxamide] |
| 53 | 122 | CN(C(=O)[C@H]1C[C@H]([S@@+](C)(=N)[O-])C1)[C@@H](c1ccc(N2CCCc3c2cnc2cc(Cl)nn32)cc1)C(F)(F)F [CPD0073225, (1S,3r)-N-[(1S)-1-(4-{4-chloro-2,3,7,10-tetraazatricyclo[7.4.0.0^2,6]trideca-1(9),3,5,7-tetraen-10-yl}phenyl)-2,2,2-trifluoroethyl]-3-[(S)-imino(methyl)oxo-λ^6-sulfanyl]-N-methylcyclobutane-1-carboxamide] |
| 57 | 149 | CN(C(=O)[C@@H](O)C1CCS(=O)(=O)CC1)[C@@H](c1ccc(N2CCCc3c2cnc2cc(Cl)nn32)cc1)C(F)(F)F (relative stereo) [CPD0073973, (2rel-S)—N-[(1S)-1-(4-{4-chloro-2,3,7,10-tetraazatricyclo[7.4.0.0^2,6]trideca-1(9),3,5,7-tetraen-10-yl}phenyl)-2,2,2-trifluoroethyl]-2-(1,1-dioxo-1λ^e-thian-4-yl)-2-hydroxy-N-methylacetamide] |
| 273 | 315 | CN(C(=O)CN1CCOCC1)[C@@H](c1ccc(N2CCCc3c2cnc2cc(Cl)nn32)cc1)C(F)(F)F [CPD0073243, N-[(1S)-1-(4-{4-chloro-2,3,7,10-tetraazatricyclo[7.4.0.0^2,6]trideca-1(9),3,5,7-tetraen-10-yl}phenyl)-2,2,2-trifluoroethyl]-N-methyl-2-(morpholin-4-yl)acetamide] |
| 123 | 121 | CN(C(=O)C1CCOCC1)[C@@H](c1ccc(N2CCCc3c2cnc2cc(Cl)nn32)cc1)C(F)(F)F [CPD0021574, N-[(1S)-1-(4-{4-chloro-2,3,7,10-tetraazatricyclo[7.4.0.0^2,6]trideca-1(9),3,5,7-tetraen-10-yl}phenyl)-2,2,2-trifluoroethyl]-N-methyloxane-4-carboxamide] |
| 313 | 1250 | COc1cc2ncc3c(n2n1)CCCN3c1ccc([C@H](N(C)C(=O)C2CCS(=O)(=O)CC2)C(F)(F)F)cc1 [CPD0019576, N-methyl-1,1-dioxo-N-[(1S)-2,2,2-trifluoro-1-(4-{4-methoxy-2,3,7,10-tetraazatricyclo[7.4.0.0^2,6]trideca-1(9),3,5,7-tetraen-10-yl}phenyl)ethyl]-1λ^6-thiane-4-carboxamide] |
